Measurements: patent US6894068B2, “Substituted benzimidazoles as non-nucleoside inhibitors of reverse transcriptase” (The United States of America as represented by the …, priority 1997, dated 2005)
“Also recorded” adds a separate entry of the source. Like-named read-outs stand apart in the source and are kept apart here.

Key:
[1] = test system: HIV-1 isolate V106A; assay: Cytopathic cell killing assay, MT-4 cells, isolate V106A; type: cell-based; details: Human immunodeficiency virus 1, MT4, read-out: EC50, isolate V106A, Table 8; MT-4 cells
Source text: (§1) The various HIV isolates tested in the Figures are those corresponding to wild-type virus (NL4-3) and the other strains listed by their RT mutations. The three 4×AZT isolates included in the Figures represent AZT drug-resistant variants. For example, the 4×AZT/L100I isolate has five mutations: four mutations confer increased resistance to AZT, and the other mutation is located within the NNRTI binding pocket. TZB and nevir. (nevirapine) are two well-known NNRTIs, included in this experiment for comparison purposes.
(§2) In this Example, the antiviral and cellular toxicity of NNRTIs was investigated, using the cytopathic cell killing assay described by Yang (Yang et al., “Characteristics of a Group of Non-nucleoside Reverse Transcriptase Inhibitors with Structural Diversity and Potent Anti-Human Immunodeficiency Virus Activity,” Leukemia 9:S75-S85 [1995]). Briefly, in this method cells (e.g., the CEM-SS cell line, available from the NIAID AIDS Research and Reference Program [ARRRP]) were seeded at a density of 5×10^3 cells/well, into the wells of a 96-well microtiter plate. The cells were then infected with HIV virus (either mutant or WT), at a multiplicity of infection (MOI) previously determined to provide complete cell killing by 6 days of culture post-infection (e.g., MOI of 0.01-0.05). Each of the HIV isolates was pre-titered to induce equivalent levels of infection based on cell killing or virus production, prior to their use in these assays. A range of test compound concentrations was added to the wells in triplicate (e.g., serial half-log dilutions) to evaluate inhibition of HIV infection. […]
(§3) After six days of incubation at 37° C., cell viability was determined spectrophotometrically at 450 nm for each well, using the metabolic reduction of XTT to a soluble colored formazan. (See, Gartner and Popovic, “Virus Isolation and Production, in Aldovini and Walker (eds.), Techniques in HIV Research, Stockton Press, NY, pp. […] [1991]; and Nara and Fischinger, “Quantitative Infectivity Assay for HIV-1 and HIV-2, ” Nature 332:469-470 [1988]). […]

[2] = test system: HIV-1 NL4-3 (WT); assay: Cytopathic cell killing assay, MT-4 cells, isolate NL4-3 (WT); type: cell-based
Source text: as §1
(§4) In this Example, the antiviral and cellular toxicity of NNRTIs was investigated, using the cytopathic cell killing assay described by Yang (Yang et al., “Characteristics of a Group of Non-nucleoside Reverse Transcriptase Inhibitors with Structural Diversity and Potent Anti-Human Immunodeficiency Virus Activity,” Leukemia 9:S75-S85 [1995]). Briefly, in this method cells (e.g., the CEM-SS cell line, available from the NIAID AIDS Research and Reference Program [ARRRP]) were seeded at a density of 5×10^3 cells/well, into the wells of a 96-well microtiter plate. The cells were then infected with HIV virus (either mutant or WT), at a multiplicity of infection (MOI) previously determined to provide complete cell killing by 6 days of culture post-infection (e.g., MOI of 0.01-0.05). Each of the HIV isolates was pre-titered to induce equivalent levels of infection based on cell killing or virus production, prior to their use in these assays. A range of test compound concentrations was added to the wells in triplicate (e.g., serial half-log dilutions) to evaluate inhibition of HIV infection. Controls for each assay included drug controls (drug colorimetric control wells), drug cytotoxicity control wells (cells with drug), virus control wells (cells with virus), and cell viability controls (cells only). Positive control drugs (e.g. AZT and ddC) were also run in parallel.
(§5) After six days of incubation at 37° C., cell viability was determined spectrophotometrically at 450 nm for each well, using the metabolic reduction of XTT to a soluble colored formazan. (See, Gartner and Popovic, “Virus Isolation and Production, in Aldovini and Walker (eds.), Techniques in HIV Research, Stockton Press, NY, pp. […] [1991]; and Nara and Fischinger, “Quantitative Infectivity Assay for HIV-1 and HIV-2, ” Nature 332:469-470 [1988]).
(§6) The in vitro therapeutic index (TI50) was defined as the fold-difference between the EC50 and IC50. The results for the various compounds are included in FIGS. 8 and 19.

[3] = test system: HIV-1 isolate Y181C; assay: Cytopathic cell killing assay, MT-4 cells, isolate Y181C; type: cell-based
Source text: as §1, §4, §5, §6

[4] = test system: WT and HIV-1 variants containing amino acid substitutions in RT; type: cell-based; details: cytopathic cell killing assay, NNRTI-resistant HIV isolates
Source text: In these Tables, antiviral data are reported as the quantity of drug in μM required to reduce cell killing or virus production by 50% (EC50). The various HIV isolates tested in the Figures are those corresponding to wild-type virus (NL4-3) and the other strains listed by their RT mutations. The three 4×AZT isolates included in the Figures represent AZT drug-resistant variants.
(§7) Briefly, in this method cells (e.g., the CEM-SS cell line, available from the NIAID AIDS Research and Reference Program [ARRRP]) were seeded at a density of 5×10^3 cells/well, into the wells of a 96-well microtiter plate. The cells were then infected with HIV virus (either mutant or WT), at a multiplicity of infection (MOI) previously determined to provide complete cell killing by 6 days of culture post-infection (e.g., MOI of 0.01-0.05). Each of the HIV isolates was pre-titered to induce equivalent levels of infection based on cell killing or virus production, prior to their use in these assays. A range of test compound concentrations was added to the wells in triplicate (e.g., serial half-log dilutions) to evaluate inhibition of HIV infection. Controls for each assay included drug controls (drug colorimetric control wells), drug cytotoxicity control wells (cells with drug), virus control wells (cells with virus), and cell viability controls (cells only). Positive control drugs (e.g. AZT and ddC) were also run in parallel.
as §5
Antiviral and toxicity data were reported as the quantity of drug required to inhibit 50% of virus-induced cell killing or virus production (EC50), and the quantity of drug required to […] (IC50). The in vitro therapeutic index (TI50) was defined as the fold-difference between the EC50 and IC50.

[5] = test system: HIV-1 isolate L74V; assay: Cytopathic cell killing assay, MT-4 cells, isolate L74V; type: cell-based; details: MT-4 cells
Source text: as §1, §4, §5, §6

[6] = molecular target: HIV-1 WT RT (Human immunodeficiency virus type 1 group M subtype B, UniProt P03366); assay: biochemical; type: biochemical
[7] = test system: HIV-1 isolate K103N; assay: Cytopathic cell killing assay, MT-4 cells, isolate K103N; type: cell-based; details: for activity against K103N, result in words: cytopathic cell killing assay
Source text: as §1, §4, §5, §6

[8] = test system: HIV-1 isolate K101E; assay: Cytopathic cell killing assay, MT-4 cells, isolate K101E; type: cell-based
Source text: as §1, §4, §5, §6

[9] = test system: HIV-1 isolate L100I; assay: Cytopathic cell killing assay, MT-4 cells, isolate L100I; type: cell-based
Source text: as §1, §4, §5, §6

[10] = test system: HIV-1 isolate A98G; assay: Cytopathic cell killing assay, MT-4 cells, isolate A98G; type: cell-based; details: Human immunodeficiency virus 1, MT4, read-out: EC50, isolate A98G, Table 8; MT-4 cells
Source text: as §1, §4, §5, §6

[11] = test system: HIV-1 WT virus (NL4-3); assay: microbe, parasite or virus in culture; type: cell-based; details: Human immunodeficiency virus 1, NL43, CEM-SS, read-out: EC50
Protocol: Evaluation of these compounds for the inhibition of HIV-1 was determined as the fifty percent cell culture inhibitory concentration (CIC50) in CEMSS cell culture with WT virus (NL4-3).
as §4, §5, §6

[12] = test system: HIV-1 isolate V108I; assay: Cytopathic cell killing assay, MT-4 cells, isolate V108I; type: cell-based
Source text: as §1, §4, §5, §6

[13] = test system: HIV-1 isolate V179D; assay: Cytopathic cell killing assay, MT-4 cells, isolate V179D; type: cell-based; details: Human immunodeficiency virus 1, MT4, read-out: EC50, isolate V179D, Table 8; MT-4 cells
Source text: as §1, §4, §5, §6

[14] = test system: HIV-1 isolate Y188C; assay: Cytopathic cell killing assay, MT-4 cells, isolate Y188C; type: cell-based; details: MT-4 cells
Source text: as §1, §4, §5, §6

[15] = test system: HIV-1 isolate Y188H; assay: Cytopathic cell killing assay, isolate Y188H; type: cell-based; details: Human immunodeficiency virus 1, read-out: EC50, isolate Y188H
Source text: as §1, §4, §5, §6

[16] = test system: HIV-1 isolate M184I; assay: Cytopathic cell killing assay, isolate M184I; type: cell-based; details: Human immunodeficiency virus 1, read-out: EC50, isolate M184I
Source text: as §1, §2, §3

[17] = test system: HIV-1 isolate 4xAZT (AZT drug-resistant variant); assay: Cytopathic cell killing assay, MT-4 cells, isolate 4xAZT; type: cell-based; details: Human immunodeficiency virus 1, MT4, read-out: EC50, isolate 4XAZT
Source text: as §1, §2, §3

[18] = test system: HIV-1 isolate 4xAZT/L100I; assay: Cytopathic cell killing assay, MT-4 cells, isolate 4xAZT/L100I; type: cell-based; details: read-out: EC50, isolate 4XAZT/L1001; Table 9; MT-4 cells
Protocol: The various HIV isolates tested in the Figures are those corresponding to wild-type virus (NL4-3) and the other strains listed by their RT mutations. The three 4×AZT isolates included in the Figures represent AZT drug-resistant variants.
as §7, §5
The in vitro therapeutic index (TI50) was defined as the fold-difference between the EC50 and IC50.

[19] = Human immunodeficiency virus 1, MT4, read-out: EC50, isolate Y181C, Table 10, values in μM
[20] = Human immunodeficiency virus 1, MT4, read-out: EC50, isolate L100I, Table 10, values in μM
[21] = Table 7, drug concentration required to reduce cell killing or virus production by 50%, WT

CC(=O)Nc1cccc2c1nc(-c1c(F)cccc1F)n2Cc1c(F)cccc1F [Compound 3600, 1-(2,6-difluorobenzyl)-2-(2,6-difluorophenyl)-4-acetamidobenzimidazole]
EC50 [1]: > 20 µM
EC50 ([2]; Human immunodeficiency virus 1, NL43, MT4, Table 8, MT-4 cells, read-out: EC50, isolate NL4-3): 1.6 µM
EC50 ([2]; Human immunodeficiency virus 1, NL43, MT4, Table 10, values in μM, read-out: EC50, isolate NL4-3 (WT)): 1.97 µM
EC50 ([3]; Human immunodeficiency virus 1, MT4, read-out: EC50, isolate Y181C, Table 8, MT-4 cells): > 10 µM
EC50 [3, 19]: > 100 µM
cross-resistance profile, result in words [4]: inhibit HIV-1 better than TZB
EC50 ([5]; Human immunodeficiency virus 1, MT4, read-out: EC50, isolate L74V, Table 8): 1200 nM
melting point: 194 to 195 °C
IC50 [6]: 54.7 µM
inhibition at 1 µM ([6]; Table 7, 1 μM drug, WT HIV-1 RT, read-out: % inhibn (1 μM)): 24%
EC50 ([7]; Human immunodeficiency virus 1, MT4, read-out: EC50, isolate K103N, Table 8, MT-4 cells): > 20 µM
EC50 ([7]; Human immunodeficiency virus 1, MT4, read-out: EC50, isolate K103N, Table 10, values in μM): > 100 µM
EC50 ([8]; Human immunodeficiency virus 1, MT4, read-out: EC50, isolate K101E, Table 8, MT-4 cells): > 20 µM
EC50 [9, 20]: 3.25 µM
EC50 ([9]; Human immunodeficiency virus 1, MT4, read-out: EC50, isolate L1001, Table 8, MT-4 cells): 2.1 µM
EC50 [10]: 4300 nM
EC50 [11, 21]: 1480 nM
EC50 ([12]; Human immunodeficiency virus 1, MT4, read-out: EC50, isolate V1081, Table 8, MT-4 cells): 5.3 µM
EC50 [13]: 1700 nM
EC50 ([14]; Human immunodeficiency virus 1, MT4, read-out: EC50, isolate Y188C, Table 8): > 10 µM

COc1cccc2c1nc(-c1c(F)cccc1F)n2Cc1c(F)cccc1F [Compound 5006, 1-(2,6-difluorobenzyl)-2-(2,6-difluorophenyl)-4-methoxylbenzimidazole]
EC50 [3, 19]: 0.26 µM
activity against Y181C, result in words ([3]; cytopathic cell killing assay): maintaining activity
cross-resistance profile, result in words [4]: inhibit HIV-1 better than TZB; also recorded: equal or better against the various variants than nevirapine
cross-resistance profile, result in words ([4]; listed as 44): retained the best activity against the different RT variants; also recorded: retains activity comparable with nevirapine
melting point: 154 to 155 °C
EC50 [15]: 260 nM
activity against K103N, result in words [7]: failed to show any activity
EC50 [16]: 160 nM
EC50 ([8]; Human immunodeficiency virus 1, MT4, read-out: EC50, isolate K101E, Table 10, values in μM): 2.82 µM
EC50 [9, 20]: 0.16 µM
EC50 [17]: 600 nM
EC50 [10]: 300 nM
EC50 [11, 21]: 4.6 nM
EC50 ([11]; Table 11, CEMSS/NL4-3, NRVC = no reduction in viral CPE): 60 nM
EC50 ([11]; text b130, cytopathic cell killing assay, WT): 4.6 nM
EC50 ([12]; Human immunodeficiency virus 1, MT4, read-out: EC50, isolate V108I, Table 10, values in μM): 2.82 µM

Fc1cccc(F)c1C1SCc2nc3ccccc3n21 (centres unmarked) [TZB, 1-(2,6-difluorophenyl)-1H,3H-thiazolo[3,4-a]benzimidazole, reference compound]
EC50 ([2]; Human immunodeficiency virus 1, NL43, MT4, read-out: EC50, isolate NL4-3, Table 9, MT-4 cells): 1 µM
EC50 ([5]; Human immunodeficiency virus 1, MT4, read-out: EC50, isolate L74V, Table 9): 800 nM
activity against K103N, result in words [7]: ineffective
EC50 [18]: 1100 nM
EC50 ([14]; Human immunodeficiency virus 1, MT4, read-out: EC50, isolate Y188C, Table 9): > 20 µM
